For experiment [1], the system named is MDAMB231. Briefly: Wound Healing Assay (WHA), breast cancer cell line. Format: cell-based. The conditions noted are these: IC10 conc. of compound. The procedure: (§1) Wound Healing Assay (WHA) determines the ability of cancer stem cells to heal the wound formed in a confluent monolayer.
(§2) Procedure: 0.35×10^6 cells were plated in each well of 6 Tissue Culture well plates. The plate was incubated for 48 hrs at 37° C., 5% CO2. […] IC10 conc. of the respective compound was added into each well. The plates were incubated at 37° C., 5% CO2 and the width of scratch was measured at various time intervals such as 6, 24 and 48 hours. Average of 3 distances were taken for each time point using IS camera Measure. A plot of average width of scratch in micrometer was plotted against the time interval after treatment.

For experiment [2], the system named is PC3. Description: Wound Healing Assay (WHA), prostate cancer cell line. Format: cell-based. The conditions noted are these: IC10 conc. of compound. As to the method: as §1, §2
Experiment [3] relates to MDAMB231. Briefly: In vitro antiproliferative assay (MTT assay), breast cancer cell line. Format: cell-based. The method in brief:
(§3)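 Metabolic reduction of MTT served as the growth measure. Plated cells rested 24 h, received compound for 48 h at 37 °C under 5% CO2, then MTT at 0.5 mg/ml for 4 h before DMSO solubilization.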
On the technique in general: Tetrazolium assays rely on reduction of a dye to a coloured formazan, in cell work by metabolically active cells.

Experiment [4] concerns MDAMB231. Briefly: In vitro sphere-forming assay (cancer stem cells), Mammosphere media. The conditions noted are these: for 3D sphere count of MDAMB231: Mammosphere media, 2000 cells/well, n = 6 ± S.D.
Method: In Vitro Sphere-forming Assay: Sphere assay measures the ability of cancer stem cells (CSCs) to form spheres in specially designed serum-free medium.
Mammosphere Media Preparation (For 100 mL): 1 g methyl cellulose autoclaved with magnetic stirrer, 100 ml plain media (MEBM) was added and dissolved under magnetic stirring. After complete dissolution FGF-80 μL, EGF-40 μL, Penstrep-1 mL, Heparin-400 μL was added.
Procedure—The cells were trypsinised and made into single-cell suspension by passing through cell strainers (100 μl and 40 μl, respectively), The cells were diluted at a concentration of 2000 cells/100 μL and suspended in either Mammosphere (for breast cell lines) or Prostosphere (for prostate cell lines). 100 μL of this suspension was added into each well of 96-well suspension plates and incubated at 37° C., 5% CO2 for 24 hrs. Appropriate concentrations of the drugs (2 μL) were added into respective wells with 100 μL of stem cell culture medium. Plates were incubated at 37° C., 50 CO2 for 72 hrs. After incubation, 2.5 μL of the respective drug concentration and 50 μL of stem cell culture medium were added into each well and the plates were further incubated at 37° C., 50% CO2 for 72 hrs. 3 μL of the respective drug concentration was added with 50 μL of stem cell culture medium again after incubation and plates were reincubated for 72 hrs at 37° C., 50 CO2. Number of primary spheres formed for each concentration were counted. The spheres were converted to 0 viability of spheres compared to untreated (Growth Control with DMSO, GCD).
Experiment [5] deals with PC3. Description: Soft agar colony-formation assay, prostate cancer. Format: cell-based. To be noted: for IC50: Soft Agar Assay, 1 week, Alamar Blue. The procedure:
(§4) The Soft Agar Colony-formation Assay is an anchorage-independent growth assay in soft agar, which is one of the most stringent assays for detecting malignant transformation of cells. For this assay, malignant cells are cultured with appropriate controls in soft agar medium for 1-2 weeks. Following this incubation period, formed colonies can either be analyzed morphologically using cell stain and quantifying the number of colonies formed.
(§5) Briefly, for Soft Agar Assay a mixture of 50 ul of 2× medium (taken appropriately as per cell line) and 50 ul of 1.2% Bacto Agar were plated on to each well of 96 well micro titer assay plate. 10 ul of cells (of specific plating efficiency pre standardized for respective cell line) were mixed with 20 ul of 2× medium and 30 ul of 0.8% of Bacto Agar and 1.6 ul of drug (of appropriate concentration) in a vial and transferred to the solidified pre layers of the assay plates. The cells were then allowed to grow and form colonies at 37° C. and 5% CO2 for 1 week. An intermittent feeding with 50 ul of appropriate 2× medium was performed after 3 days of experimental set up. 16 ul of Alamar Blue (1.5 mg/ml) was then added to all the wells to quantify the developed colonies. The plates were incubated for 24 hrs at 37° C. Absorbance was then measured at 630 nm. XY graph of log Percent viability was then plotted against log drug concentration.
(§6) Following plating efficiencies were standardized for Soft Agar Assay: […]
Background: Alamar Blue is a resazurin reagent that responds to reducing activity.

In experiment [6] the test system is Aldehyde dehydrogenase (ALDH). Description: Aldehyde Dehydrogenase (ALDH) assay, ELISA kit. Format: cell-based. The conditions noted are these: MDAMB231, 48 hrs. The source says:
Aldehyde dehydrogenases (ALDH) are a family of enzymes that catalyze the metabolism of exogenous and endogenous aldehydes, preventing the accumulation of potentially reactive and toxic aldehydes and their metabolites. In addition to their role in aldehyde metabolism, ALDH enzymes also play critical roles in other cellular processes such as cell proliferation, differentiation, and survival. ALDH also serves as a marker for certain stem cell populations including hematopoietic stem cells and certain cancer stem cells. ALDH concentration was determined by using ([…] Dx) ELISA kit by following protocol: • 1 Standards (50 μl)/sample (40 μl) were added to the respective wells, (except Blank). • 2. (10 μl) Antibody-Biotin conjugate was then added in each sample well (except Blank). • 3. (50 μl) of Horse Radish Peroxidase (HRP) Conjugate was then added to each well (except Blank). • 4. The plates were incubated for one hour at 37° C. in the incubator. • 5. Wash (4 times with wash buffer) and blot residual buffer by firmly tapping the plate on the absorbent paper. Wipe off any liquid from the bottom of the microtiter wells as any residue can interfere in the reading step. • 6. Add TMB substrate A (50 μl) and then TMB substrate B (50 μl) to each well including Blank as well. • 7. Incubate for 10 mins at 37° C. in dark. • 8. Add (50 μl) stop solution. Wells should turn from blue to yellow. • 9. Read absorbance at 450 nm. • 10 A X-Y graph of concentration vs optical density was plotted. ALDH concentration was calculated by substituting optical density values in the regression analysis equation.
A general note: An ELISA detects its analyte on a solid surface through an enzyme-linked reagent.

Experiment [7] relates to PC3. Description: In vitro antiproliferative assay (MTT assay), prostate cancer cell line. Format: cell-based. In outline:
as §3

The test system of experiment [8] is MDAMB231. Description: Soft agar colony-formation assay, breast cancer. Format: cell-based. The conditions noted are these: for IC50: Soft Agar Assay, 1 week, Alamar Blue. As to the method: as §4, §5, §6
Experiment [9] deals with MCF7. Description: In vitro antiproliferative assay (MTT assay), MCF7. The conditions noted are these: Homo sapiens, second value of MDAMB231/MCF7 column. The format is cell-based. The procedure:
MTT assay is a simple and sensitive assay where, metabolic reducing activity of the cells is measured. The increase of this activity in time is taken as a parameter of cell growth. If treatment with a drug impairs this increase, the action is a consequence of growth inhibition, cell killing or both. […] All cell lines were cultured in a 37° C. incubator with a 5% CO2 environment. Compounds were dissolved in DMSO with a concentration of 0.1M (stock solution). Cells were seeded into 96-well plates at suitable plating efficiency.
In the MTT procedure, the cells were plated in 96 well plates as per predetermined plating efficiency (Table1). The plates were then incubated for 24 hrs in 5% CO2 atmosphere at 37° C. Appropriate concentrations of the drugs were then added to the plate and further incubation was carried out for 48 hrs (in 5% CO2 atmosphere at 37° C.). The assay plate was then centrifuged twice at 3000 rpm for 3 mins and supernatant was then discarded. 100 ul of MTT solution (0.5 mg/ml) was then added to each well of the plate and it was further incubated for 4 hrs (in 5% CO2 atmosphere at 37° C.) Following 4 hr incubation, the plate was then centrifuged twice, and supernatant was aspirated off very carefully. 200 ul of DMSO was then added to each well to solubilize. MTT crystals and mixed well by shaking the plate. […]

For experiment [10], the system named is Human lymphocytes. Briefly: Lymphocyte assay (MTT on normal cells). The format is cell-based. To be noted: Lymphocyte; human peripheral blood lymphocytes, MTT procedure. The method in brief: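 Lymphocytes from human peripheral blood isolated by density-gradient centrifugation on HiSep LSM 1077, washed in D.P.B.S; only cells with purity and viability above 95% used. Seeded at 0.7 million/ml and assessed by MTT.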

In experiment [11] the test system is PC3. Description: In vitro sphere-forming assay (cancer stem cells), Prostosphere media. The conditions noted are these: for 3D sphere count of PC3: Prostosphere media, 2000 cells/well, n = 6 ± S.D.
The mark [12] stands for this setting: MTT assay, prostate cancer PC3, 48 hrs drug incubation.
Where [13] appears, read: Homo sapiens, MDA-MB-231, MTT assay, MDAMB231.
Where [14] appears, read: Homo sapiens, PC-3, MTT assay, PC3.
Setting [15] is: Homo sapiens, MDA-MB-231, read-out: % Viability of spheres (MDAMB231).
The mark [16] stands for this setting: Homo sapiens, PC-3, read-out: % Viability of spheres (PC3).

Structures are written as SMILES. “And” between values parts separate entries of the source, which are not always exact repeats. Identical values can stand only once.

What is called IC50 is the point on the concentration scale where inhibition reaches its midpoint. A high value points to lower potency. The viability is a read-out of living cells in per cent, often relative to untreated cells.

Turning to `N.N.[Cl][Pt][Cl]` [Cisplatin, reference compound], the “% inhibition of Wound Healing for Breast Cancer Cell line (MDAMB231) after 48 hrs” value in experiment [1] was 33.78%. In addition, the “% inhibition of Wound Healing for Prostate Cancer Cell line (PC3) after 48 hrs” value in experiment [2] is 25.13%. The IC50 amounted to 31000 nM in [3] (MTT assay, breast cancer MDAMB231, 48 hrs drug incubation); 34400 nM in experiment [5]; 35900 nM in experiment [7] (setting [12]); 35200 nM in [8]. Besides, the “3D sphere count of MDAMB231” value in experiment [4] (drug 250 uM) was 28(±3) and 26(±3). Also, the “% inhibition of ALDH on Breast Cancer Cell line (MDAMB231) after 48 hrs” value in experiment [6] turned out to be 26.45%.
As for `O=C1C(Oc2ccc3c(c2)OCO3)=CC(=O)c2c(OCCCCN3CCOCC3)cccc21` [Formula 82], the results for the IC50 in experiment [3] (setting [13]), in experiment [9] and in experiment [7] (setting [14]) were 970 nM, 480 nM and 582 nM, respectively.
`O=C1C=C(Oc2ccc(F)c(F)c2)C(=O)c2c(OCCN3CCOCC3)cccc21` [Formula 83]: the half-inhibitory concentration (IC50) in experiment [3] (setting [13]) was 860 nM; in experiment [9], 660 nM; in [7] (setting [14]) it was 721 nM.
For the compound `COc1ccc(OC2=CC(=O)c3c(OCCN4CCOCC4)cccc3C2=O)cc1` [Formula 43, 5-(2-morpholinoethoxy)-2-(4-methoxyphenoxy) naphthalene-1,4-dione], the IC50 in [10] amounted to 10800 nM; in experiment [3] (Homo sapiens, MDA-MB-231, 48 h, MTT assay, breast cancer MDAMB231, 48 hrs drug incubation), 1010 nM; in [5] (Homo sapiens, PC-3, 168 h), 415 nM; in [7] (setting [12]), 500 nM; in experiment [8] (Homo sapiens, MDA-MB-231, 168 h) it was 662 nM. In [1], the “% inhibition of Wound Healing for Breast Cancer Cell line (MDAMB231) after 48 hrs” value was 53.3%. Moreover, the “% inhibition of Wound Healing for Prostate Cancer Cell line (PC3) after 48 hrs” value in [2] was 50.47%. The viability at 0.0025 µM in [4] (setting [15]) was 82%; in experiment [11] (setting [16]), 75%. Besides, the viability at 0.025 µM in [4] (setting [15]) worked out at 61%; in experiment [11] (setting [16]), 57%. Further, the viability at 0.25 µM in experiment [4] (setting [15]) and in [11] (setting [16]) was 46% each time. The viability at 2.5 µM in experiment [4] (setting [15]) is 33%; in experiment [11] (setting [16]), 30%. In addition, the viability at 25 µM in experiment [4] (setting [15]) and in experiment [11] (setting [16]) was 21% throughout. Moreover, the “3D sphere count of MDAMB231” value in experiment [4] (drug 0.0025 uM) is reported as 82(±4); in [4] (drug 0.025 uM), 61(±3); in [4] (drug 0.25 uM), 46(±3); in [4] (drug 2.5 uM) it was 33(±4); in experiment [4] (drug 25 uM), 21(±3). Further, the “anticancer activity in comparison with cisplatin, soft agar, prostate cancer cell line” value in [5] (FIG. 52, PC3) was “higher anticancer activity in comparison with cisplatin”. Moreover, the “3D sphere count of PC3” value in [11] (drug 0.0025 uM) is 75(±4); in experiment [11] (drug 0.025 uM), 57(±5); in [11] (drug 0.25 uM), 46(±4); in [11] (drug 2.5 uM), 30(±4); in experiment [11] (drug 25 uM), 21(±3). Besides, in experiment [8] (FIG. 51, MDAMB231), the “anticancer activity in comparison with cisplatin, soft agar, breast cancer cell line” value is “higher anticancer activity in comparison with cisplatin”.

The record behind these values is patent publication US20240018132A1, “5-HYDROXY-1,4-NAPHTHALENEDIONE FOR USE IN THE TREATMENT OF CANCER” (GODAVARI BIOREFINERIES LIMITED, priority 2020, published 2024).
